Measured values as given in patent publication US20260224756A1, “Methods Of Cellular Imaging And Inorganic Nanoimaging Agents For Same” (Cornell University, priority 2023, published 2026).
Entries after “also recorded” stand apart in the source; their conditions may differ.

Columns and labels:
Format in all cases: in vivo, mouse
osteocytes [1] = assay: Quantification of C'Dot Subcellular Localization within osteocyte cell bodies
Procedure: Quantification of C'Dot Subcellular Localization: Individual frames from z-stacks taken after a 45 minute C'Dot incubation were analyzed for subcellular localization within osteocytes under different study conditions. Filtering with a gaussian blur was performed prior to thresholding of signal and particle analysis to identify cellular regions of interest (ROIs). These ROIs were overlayed onto the original image. Cells with distinct subcellular localization of C'Dots were counted as a percentage of total cells. Other cells had saturated or non-distinct signal. Cells with C'Dot signal in with a rim phenotype were also quantified by-eye. Two blinded individuals quantified the images and averaged consensus data was used in the final results.
METHODS: Silica core poly(ethylene glycol) shell (core-shell) nanoparticles covalently encapsulating Cy5 dye (PE G-C'Dots) were created using a modified Stober condensation in water. RGD-C'Dots were created by surface functionalizing C'Dot surface with amino acid motifs that bind to the extracellular RGD domain of integrin proteins. Skeletally mature C57BL/6J mice age 16-18 weeks were used for these studies (n=4-5/group/sex). C'Dot Injections: Under inhaled isoflurane anesthesia, PEG- or RGD-C'Dots were injected subcutaneously above the third metatarsal (MT3) in the mouse hind paw at a concentration of 10 μM (FIG. 9). C'Dots were incubated for 45 minutes with mice allowed normal cage activity. Pre-incubation with Dyngo-4a (Abcam) or Methyl-β-cyclodextrin (Sigma Aldrich) for 30 minutes prior to C'Dot injection was used to inhibit dynamin activity or cholesterol lipid raft formation in treated groups. Imaging: After incubation, the MT3 was surgically isolated and stabilized using a metal 3-pin system in re-anesthetized mice'. […] Image Quantification: Mean intensity and cell count of the C'Dot tagged osteocytes were quantified in ImageJ (NIH) using 3D segmentation and were normalized to background intensity. Subcellular localization of C'Dots was quantified by eye from a single frame of the first z-stack of each clearance experiment. […]

osteocytes [2] = assay: Endocytosis Inhibition Experiment: Dyngo4a or MβCD pre-incubation before C'Dot injection and clearance imaging; conditions: for changes in uptake and retention of C'Dots into osteocytes (FIG. 17): RGD and PEG C'Dots; for number of cells visualized and quantified at the initial imaging timepoint compared to untreated control: RGD-C'Dots, 30 minute preincubation of drug
Procedure: C'Dot Injection and Incubation: Mice were anesthetized with 2-3% isoflurane mixed with medical grade air in an induction chamber for 3 minutes prior to injection. During injection, mice were kept under 2% isoflurane with a nose cone. A 10 μL subcutaneous injection of 10 μM C'Dots was then administered over the third metatarsal (MT3). C'Dots were incubated for 1 hour prior to MT3 isolation (n=4-5/group/sex). Mice were allowed normal cage activity during their incubation time, and were re-anesthetized immediately before MT3 isolation.
C'Dot Imaging: C'Dot fluorescent signal inside the MT3 was visualized with multiphoton microscopy (MPM) (Bergamo II, Thorlabs) as previously described (Matthews 2023). Briefly, a 20× immersion objective (XLUMPLFLN, Olympus), 1090 nm wavelength excitation, and a >647 nm longpass filter acquisition were used for Cy5 encapsulated C'Dots. Images were captured at 1024×1024 pixel density and 0.588 μm pixel resolution. For the C'Dot clearance study, a 35 μm z-stack was taken for each mouse, starting 20 μm beneath the bone surface, with 0.3 μm steps between each slice and 7 frame averaging per slice. These z-stacks were taken every 15 minutes for almost 3 hours after the initial 1 hour incubation.
C'Dot Image Analysis: Z-stacks were analyzed in ImageJ (NIH) as previously described (Matthews 2023). Briefly, a macro was created to interpolate the regions of interest across the z-stack as well as filter the images. Then 3D segmentation was run, creating objects for all cell volumes over a threshold intensity. The lower bound for threshold intensity was established as the mean plus 3× standard deviation of background fluorescence. Segmented objects were then filtered by surface area (>1000 pixels) to ensure only full cell volumes were counted, and mean intensity for each object was quantified using the 3D manager tool. Intensities were normalized to background within each z-stack.
Endocytosis Inhibition Experiment: The small molecule Dyngo4a was used as a potent Dynasore analogue to evaluate the impact of dynamin-mediated endocytosis inhibition. A pre-incubation of Dyngo4a (10 μL, 30 μM) was subcutaneously injected above the MT3 30 minutes prior to C'Dot injection and subsequent imaging. Dyngo4a was diluted from a stock solution in DMSO to the working concentration in 1×PBS. Dyngo4a was kept at […] and was defrosted prior to use. Methyl-β-cyclodextrin (MβCD) was used as a depletor of plasma membrane cholesterol to evaluate the impact of cholesterol-mediated, lipid raft-based endocytosis inhibition. A pre-incubation of MβCD (10 μL, 10 mM) was subcutaneously injected 30 minutes before C'Dot injection. MβCD was diluted from a powder in 1×PBS. MβCD was kept at 4 C and warmed to room temperature prior to use. Both drugs were tested across all groups: male and female, PEG- and RGD-C'Dots (n=4-5/group/sex).
Statistical Analyses: Clearance study analysis was done using a student's t-test, 2-way ANOVAs, and regression analyses, including non-linear (One Phase Decay) and linear. Analyses were performed in GraphPad Prism version 9.0 for Mac OS X (GraphPad Software).
METHODS: Silica core poly(ethylene glycol) shell (core-shell) nanoparticles covalently encapsulating Cy5 dye (PE G-C'Dots) were created using a modified Stober condensation in water. RGD-C'Dots were created by surface functionalizing C'Dot surface with amino acid motifs that bind to the extracellular RGD domain of integrin proteins. Skeletally mature C57BL/6J mice age 16-18 weeks were used for these studies (n=4-5/group/sex). C'Dot Injections: Under inhaled isoflurane anesthesia, PEG- or RGD-C'Dots were injected subcutaneously above the third metatarsal (MT3) in the mouse hind paw at a concentration of 10 μM (FIG. 9). C'Dots were incubated for 45 minutes with mice allowed normal cage activity. […]

osteocytes [3] = assay: Combined acute and extended C'Dot clearance from osteocytes in non-drugged and drugged groups; conditions: for impact on combined acute and extended C'Dot clearance (FIG. 18): male mice; for impact on combined acute and extended C'Dot clearance (FIG. 19): male mice (so in the source)
Procedure: Osteocyte C'Dot Endocytosis and Metabolism: C'Dots and their rapid uptake and clearance from osteocytes was used to study endocytosis in living bone tissue. In endocytosis experiments, different drugs are preincubated in the foot (injected in the same manner) prior to C'Dot application and incubation. Drugs to target different types of endocytic pathways, including non-receptor mediated endocytosis and clathrin mediated endocytosis, were used. The same clearance imaging was performed to see how the drugs impact the cellular uptake and retention of the nanoparticles over time.
Additionally, this experiment was performed again with a short, 5 minute incubation and more rapid imaging to see what the acute impacts of the drugs were on C'Dot uptake.

Molecule	change in cells with discrete localization of RGD C'Dot signal after drug pre-incubation (osteocytes [1]; females, pre-incubation with drug)	cells with discrete localization of RGD C'Dot signal after drug pre-incubation (osteocytes [1]; males, pre-incubation with drug) [%]	change of PEG-C'Dot clearance from untreated control (osteocytes [2]; PEG-C'Dots, males and females, Dyngo4a preincubation)	changes in uptake and retention of C'Dots into osteocytes (FIG. 17) (osteocytes [2])	RGD-C'Dot signal at the end of the imaging experiment (osteocytes [2]; female mice, Dyngo4a preincubation)	number of cells visualized and quantified at the initial imaging timepoint compared to untreated control (osteocytes [2]; female mice)	RGD C'Dot signal intensity and retention compared to untreated control (osteocytes [2]; male mice, Dyngo4a pre-incubation)	RGD-C'Dot signal at the end of the imaging experiment (osteocytes [2]; male mice, Dyngo4a preincubation)	number of cells visualized and quantified at the initial imaging timepoint compared to untreated control (osteocytes [2]; male mice)	impact on combined acute and extended C'Dot clearance (FIG. 18) (osteocytes [3])	impact on combined acute and extended C'Dot clearance (FIG. 19) (osteocytes [3])	change in percentage of cells with subcellular localization after drug pre-incubation (osteocytes [1]; any group)	RGD C'Dot signal compared to untreated control (osteocytes [2]; female group, MβCD pre-incubation)	PEG C'Dot signal compared to untreated control (osteocytes [2]; male and female PEG C'Dot groups, MβCD pre-incubation)	RGD C'Dot signal compared to untreated control (osteocytes [2]; male group, MβCD pre-incubation)	RGD C'Dot signal compared to untreated control (osteocytes [2]; male group, MβCD pre-incubation, listed as M (3CD))
O=C(N/N=C/c1cc(O)c(O)cc1O)c1cc2ccccc2cc1O [Dyngo4a]	non-significant decrease; also recorded: no statistically significant impact	25	neither males or females having significant change	significant changes in uptake and retention	near zero by the end of the experiment	no statistically significant impact	significantly increased	maintained until the end of the imaging experiment	significantly higher	has an impact only on the RGD C'Dots	does not have an impact on either C'Dot type	–	–	–	–	–
Methyl-β-cyclodextrin [MβCD]	–	–	–	significant changes in uptake and retention	–	–	–	–	–	has an impact on both C'Dot types	has an impact on both C'Dot types	did not significantly change	significant increase	only males retained a significant increase in signal	significant increase	no effect
